Experimental data as given in patent publication US20190105367A1, “ANTIMICROBIAL 4-OXOQUINOLIZINES” (Emergent Product Development Gaithersburg Inc., priority 2011, published 2019).

Tests used:
Assay in all cases: Chequerboard synergy with polymyxin B, FICI (Example 6)
Assay type in all cases: cell-based
[1] = test system: GN52 Acinetobacter baumannii levofloxacin resistant clinical isolate; conditions: for FICI / Synergy: combination with polymyxin B; for Combination drug concentration in combination: in combination with polymyxin B; for Polymyxin B MIC in combination: polymyxin B with the named antibiotic
From the text: (§1) A chequerboard technique was used to identify possible synergistic or antagonistic interactions between the 4-oxoquinolizines compounds, levofloxacin and polymyxin B. Levofloxacin was included as a control. […] Final dilutions were made in Mueller-Hinton broth, the specific test medium used for MIC determinations according to CLSI guidelines (CLSI. Methods for Dilution Antimicrobial Susceptibility Tests for Bacteria That Grow Aerobically; Approved Standard-Eighth Edition (2009). CLSI Document M07-A8. CLSI, Wayne, Pa. 19087-1898, USA.). The test medium used was a cation-adjusted Mueller-Hinton Broth II (Becton Dickinson UK Ltd., Oxford Science Park, Oxford, UK, OX4 4DQ).
(§2) The compounds 2, 33 and 35, as well as levofloxacin were tested in combination with polymyxin B on the following isolates: GN31 Acinetobacter baumannii—antibiotic susceptible clinical isolate, GN52 Acinetobacter baumannii—levofloxacin resistant clinical isolate, GN56 Acinetobacter baumannii—levofloxacin resistant clinical isolate, GN48 Klebsiella pneumoniae—NCTC 13443—NDM-1-metallo-β-lactamase and GN10 Pseudomonas aeruginosa—ATCC 27853—antibiotic susceptible reference isolate. All isolates are from the collection maintained at Quotient Bioresearch Ltd., Cambridge, UK.
(§3) The MIC values for the compounds and polymyxin B and levofloxacin were determined by broth microdilution following CLSI guidelines, and the MICs of agents in combination were determined as described by Pillai et. al (Pillai S K, Moellering R C Jr, Eliopoulis G M; Antimicrobial Combinations in Antibiotics in Laboratory Medicine 5th Edition (V. Lorian Ed) (2005) p 365-440). Initial MIC results were used to determine the microtiter plate patterns for the chequerboards. A suitable doubling dilution concentration range was selected such that the combination antibiotic range was at least two concentrations above and four concentrations below the MIC for each isolate. A fixed range of 0.008 to 8 mg/L was tested for polymyxin B except in the case of A. baumannii GN31 where a range of 0.004 to 4 mg/L was tested when in combination with the compounds 2, 33 and 35 as well as levofloxacin.
(§4) From the raw data, fractional inhibitory concentration indices (FICI) were determined for the compounds of the invention and levofloxacin together with polymyxin B for each isolate as follows:
(§5) FICX=concentration of the combination antibiotic in a particular row MIC of the combination drug alone
(§6) FICY=MIC of polymyxin B in combination[…]MIC of the polymyxin B alone
(§7) Additionally isobolograms were created to represent the same data visually. Here, the MIC of polymyxin B was plotted against every concentration of the combination antibiotic up to the MIC.

[2] = test system: GN56 Acinetobacter baumannii levofloxacin resistant clinical isolate; conditions: for FICI / Synergy: combination with polymyxin B; for Combination drug concentration in combination: in combination with polymyxin B; for Polymyxin B MIC in combination: polymyxin B with the named antibiotic
From the text: as §1, §2, §3, §4, §5, §6, §7

[3] = test system: GN31 Acinetobacter baumannii antibiotic susceptible isolate
From the text: as §1, §2, §3, §4, §5, §6, §7

[4] = test system: GN48 Klebsiella pneumoniae NCTC 13443 NDM-1-β-lactamase producing isolate
From the text: as §1, §2, §3, §4, §5, §6, §7

[5] = in combination with polymyxin B
[6] = polymyxin B with the named antibiotic

Cc1c(-c2ccc(N)nc2)ccn2c(=O)c(C(=O)O)cc(C3CC3)c12 [Compound 33, 8-(6-amino-3-pyridyl)-1-cyclopropyl-9-methyl-4-oxo-quinolizine-3-carboxylic acid]
Combination drug MIC alone [1]: 4 µg/mL | FICx [1]: 0.25 | FICy [1]: 0.24 | FICI [1]: 0.49 | Synergy [1]: Synergy (Synergy (FICI <0.5)) | Combination drug concentration in combination [1]: 1 mg/L | Polymyxin B MIC in combination [1]: 0.12 µg/mL | Combination drug MIC alone [2]: 32 µg/mL | FICx [2]: 0.06 | FICy [2]: 0.24 | FICI [2]: 0.30 | Synergy [2]: Synergy (Synergy (FICI <0.5)) | Combination drug concentration in combination [2]: 2 mg/L | Polymyxin B MIC in combination [2]: 0.12 µg/mL

Cc1c(-c2ccc3[nH]ncc3c2)ccn2c(=O)c(C(=O)O)cc(C3CC3)c12 [Compound 35, 8-(1H-indazol-5-yl)-1-cyclopropyl-9-methyl-4-oxo-quinolizine-3-carboxylic acid]
Combination drug MIC alone [3]: 0.03 µg/mL | FICx [3]: 0.13 | FICy [3]: 0.48 | FICI ([3]; combination with polymyxin B): 0.61 | Synergy ([3]; combination with polymyxin B): Partial synergy (partial synergy/addition (FICI 0.51 to 0.75)) | Combination drug concentration in combination [3, 5]: 0.004 mg/L | Polymyxin B MIC in combination [3, 6]: 0.12 µg/mL | FICx [4]: 0.06 | FICy [4]: 0.50 | FICI ([4]; combination with polymyxin B): 0.56 | Synergy ([4]; combination with polymyxin B): Partial synergy (partial synergy/addition (FICI 0.51 to 0.75)) | Synergy ([4]; combination with polymyxin B, listed as compound 35): partial synergy | Combination drug concentration in combination [4, 5]: 1 mg/L | Polymyxin B MIC in combination [4, 6]: 0.25 µg/mL | Combination drug MIC alone [1]: 2 µg/mL | FICx [1]: 0.25 | FICy [1]: 0.24 | FICI [1]: 0.49 | Synergy [1]: Synergy (Synergy (FICI <0.5)) | Combination drug concentration in combination [1]: 0.5 mg/L | Polymyxin B MIC in combination [1]: 0.12 µg/mL | Combination drug MIC alone [2]: 8 µg/mL | FICx [2]: 0.06 | FICy [2]: 0.50 | FICI [2]: 0.56 | Synergy [2]: Partial synergy (partial synergy/addition (FICI 0.51 to 0.75)) | Combination drug concentration in combination [2]: 0.5 mg/L | Polymyxin B MIC in combination [2]: 0.25 µg/mL
